From US6030980A, “Agent for the treatment of infections” (priority 1994, dated 2000)

What was measured:
[1] = system: herpes simplex virus type I; assay: animal or person; format: in vivo, BALB/c male mice; details: thermally injured mice, HSV type I 3×10^3 PFU/kg i.p., oral 1 μg/kg of aconite-alkaloid; for responders at 0.001 mg/kg: Mus musculus, 600 h, read-out: survival rate; for average survival days: 25 days
[2] = system: suppressor cell activities induced in thermally injured mice; format: cell-based, BALB/c mice; details: 1 μg/kg of aconite-alkaloid given twice to contrasuppressor cell donors; normal model 12413 ± 1438, susceptibility model 2650 ± 70
[3] = Acute toxicity of aconite-alkaloids; details: in vivo
[4] = system: AIDS virus (LP-BM5 virus); assay: Survival of opportunistic infection model mice infected with AIDS virus (LP-BM5 virus) (Experimental Example 3); format: in vivo; details: 1 μg/kg oral, observed for 150 days, saline 0%
Experimental: Mice as opportunistic infection model inoculated intraperioneally with 0.1 ml/mouse of a culture supernatant of AIDS virus (LP-BM5 virus) infected SC-1 cells were orally given benzoylmesaconine or physiological saline.

[5] = system: suppressor cell activities; assay: Contrasuppressor cell activities in MLTR, suppressor cells from LP-BM5 virus infected mice; format: cell-based; details: 1 μg/kg, suppressor cells from mice 110 days after infection with LP-BM5 virus
Experimental: Contrasuppressor cell activities, i.e. cells activities suppressing the suppressor cell activities induced in thermally injured mice were determined in mixed lymphocyte tumor cell reaction (MLTR) by mixing and incubating the following cells for 5 days in a 96-wells round-bottom microplate.
Reaction cells: Spleen mononuclear cells (referred to hereinafter as SMNCs) (5.0×10^4 cells/well) obtained from normal BALB/c mice.
Stimulator cells: EL-4 tumor cells (5.0×10^4 cells/well).
Suppressor cells: SMNCs (2.5×10^5 cells/well) obtained from the model of increased susceptibility to infections. […]
Before incubation, the cells except for the reaction cells were treated with 40 μg/ml of mitomycin C solution at 37° C. for 30 minutes. Twenty-four hours before the conclusion of 3-days incubation, 0.5 μCi/well of ^3 H-thymidine was added to the well, and the amount of ^3 H-thymidine incorporated into the reaction cells was determined in a liquid scintillation counter to evaluate the contrasuppressor cell activities induced against the suppressor cell activities by administration of the active ingredient of the present agent.
The contrasuppressor cell activities induced against suppressor cell activities by administration of benzoylmesaconine was evaluated in the same manner as in "(3) Measurement of contrasuppressor cell activities" in Experimental Example 1. […]

cytomegalovirus (CMV) = assay: Survival of thermally injured mice infected with cytomegalovirus (Experimental Example 7); details: CMV 2.5×10^3 PFU/mouse i.v., 10 μg/kg/day oral, 25 days
CMV = details: SCID mice, 10 μg/kg/day oral
[6] = system: herpes simplex virus type I; assay: Survival of mice infected with a lethal dose of herpes simplex virus type I (Experimental Example 2); format: in vivo, BALB/c mice; details: HSV type I 3×10^5 PFU/kg i.p., 10 μg/kg oral, before and after infection
Experimental: In this example, 7-week-old BALB/c mice were infected intraperioneally with a lethal dose (3×10^5 PFU/kg) of herpes simplex virus type I. Two days before the infection, 1 day and 4 days after the infection, the active ingredient of the present agent (10 μg/kg) or physiological saline (control) was orally administered through a stomach probe into the mice. Twenty-five days after the infection, their survival rate was determined to evaluate the action of the active ingredient. In this experiment, the experimental mice were given the active ingredient of the present agent before and after infection with the virus to evaluate its action mainly on the prevention and treatment of the virus infection.

[7] = J. Pharm. Dyu.7, 836-848 (1984); cited from earlier work
[8] = twenty-five days after infection

CCN1CC2(COC)C(O)CC(OC)C34C5CC6(O)C(OC)C(O)C(O)(C5C6OC(=O)c5ccc(OC)cc5)C(C(OC)C23)C14 (centres unmarked) [14-anisoylaconine]
responders at 0.001 mg/kg [1, 8]: 80% | average survival days [1]: > 22.5 days | incorporation of ^3 H-thymidine [2]: 12720 ± 1578 CPM ± SE | LD50 [3]: 20 to 500 mg/kg

CCN1CC2(COC)C(O)CC(OC)C34C5CC6(O)C(OC)C(=O)C(C5C6OC(=O)c5ccccc5)C(C(OC)C23)C14 (stereo not drawn) [16-epi-pyraconitine]
responders at 0.001 mg/kg [1, 8]: 70% | average survival days [1]: > 21.2 days | incorporation of ^3 H-thymidine [2]: 15654 ± 1209 CPM ± SE | LD50 [3]: 20 to 500 mg/kg

COCC12CN(C)C3C4C(OC)C1C3(C(OC)CC2O)C1CC2(O)C(OC)C(=O)C4C1C2OC(=O)c1ccccc1 (stereo not drawn) [16-epi-pyromesaconitine]
responders at 0.001 mg/kg [1, 8]: 80% | average survival days [1]: > 22.4 days | incorporation of ^3 H-thymidine [2]: 16891 ± 2232 CPM ± SE | LD50 [3]: 20 to 500 mg/kg

C=C1C2CCC3(C4CC5C6(C)CCCC5(C(O4)N(CCO)C6)C3C2)C1O (centres unmarked) [ajaconine]
responders at 0.001 mg/kg [1, 8]: 80% | average survival days [1]: > 22.3 days | incorporation of ^3 H-thymidine [2]: 17655 ± 1879 CPM ± SE | LD50 [3]: 20 to 500 mg/kg

CCN1CC2(COC)C(O)CC(OC)C34C5CC6(O)C(OC)C(O)C(O)(C5C6OC(=O)c5ccccc5)C(C(OC)C23)C14 (centres unmarked) [benzoylaconine]
responders at 0.001 mg/kg [1, 8]: 80% | average survival days [1]: > 22.5 days | incorporation of ^3 H-thymidine [2]: 16140 ± 1738 CPM ± SE | LD50 [3]: 20 to 500 mg/kg

COCC12CCC(OC)C34C5CC6(O)C(OC)C(O)C(O)(C5C6OC(=O)c5ccccc5)C(C(OC)C13)C4N(C)C2 (centres unmarked) [benzoylhypaconine]
responders at 0.001 mg/kg [1, 8]: 80% | average survival days [1]: > 22.4 days | incorporation of ^3 H-thymidine [2]: 21319 ± 903 CPM ± SE | LD50 [3]: 20 to 500 mg/kg

COCC12CN(C)C3C4C(OC)C1C3(C(OC)CC2O)C1CC2(O)C(OC)C(O)C4(O)C1C2OC(=O)c1ccccc1 (centres unmarked) [benzoylmesaconine]
responders at 0.001 mg/kg [1, 8]: 85% | average survival days [1]: > 21.5 days | incorporation of ^3 H-thymidine [2]: 14754 ± 1832 CPM ± SE | survival rate [4]: 80% | suppressing rate ([5]; saline 81%): 4% | incorporation of ^3 H-thymidine ([5]; saline 1,730 ± 289): 8,826 ± 535 CPM ± SE | LD50 [3]: 20 to 500 mg/kg | survival rate (cytomegalovirus (CMV); saline 0%): 100% | average survival days (cytomegalovirus (CMV); saline 12.4): > 22.1 days | survival rate (CMV; CMV 2.5×10^3 PFU/mouse, saline 0%): 100% | protective effect on CMV (CMV): protective effect

CCCCC[C@H](O)CC(=O)CCc1ccc(O)c(OC)c1 [gingerol]
average survival days ([6]; 25 days): > 24.4 days | survival rate [6, 8]: 90% | acute toxicity LD50 [7]: about 250 mg/kg

COCC12CCC(OC)C34C5CC6(O)C(O)C5C(O)(C(O)C6OC)C(C(OC)C13)C4N(C)C2 (centres unmarked) [hypaconine]
responders at 0.001 mg/kg [1, 8]: 85% | average survival days [1]: > 23.1 days | incorporation of ^3 H-thymidine [2]: 14111 ± 2232 CPM ± SE | LD50 [3]: 20 to 500 mg/kg

C=C1[C@H]2C[C@@H]3[C@H]4N5C[C@@]6(C)[C@H]7[C@@H]5C[C@]3([C@@H]1O)[C@@](O)(C2)[C@]74C[C@@H](OC(=O)c1ccccc1)[C@@H]6O [ignavine]
average survival days [1]: > 21.9 days | survival rate [1, 8]: 75% | incorporation of ^3 H-thymidine [2]: 12831 ± 2255 CPM ± SE

COCC12CN(C)C3C4C(OC)C1C3(C(OC)CC2O)C1CC2(O)C(O)C1C4(O)C(O)C2OC (centres unmarked) [mesaconine]
responders at 0.001 mg/kg [1, 8]: 85% | average survival days [1]: > 23.1 days | incorporation of ^3 H-thymidine [2]: 15791 ± 2778 CPM ± SE | LD50 [3]: 20 to 500 mg/kg

CCN1CC2(COC)CCC(O)C34C5CC6C(OC)CC(O)(C5C6O)C(C(OC)C23)C14 (centres unmarked) [neoline]
responders at 0.001 mg/kg [1, 8]: 80% | average survival days [1]: > 22.3 days | incorporation of ^3 H-thymidine [2]: 13744 ± 526 CPM ± SE | LD50 [3]: 20 to 500 mg/kg
